{"source": "ChEMBL document CHEMBL4219148", "about": "“Discovery of a highly potent orally bioavailable imidazo-[1, 2-a]pyrazine Aurora inhibitor” (Bioorg Med Chem Lett, 2018)", "key": {"Rattus norvegicus": {"tested_on": "Rattus norvegicus", "test": "AUC (0 to 24 hrs) in rat at 30 mg/kg, po", "type": "ADME, organism-based", "design": "time < 24 hr, dose 30 mg/kg, route oral", "conditions": "in vivo, 24 h"}, "[1]": {"test": "Intrinsic clearance in cryopreserved rat hepatocytes assessed per million cells", "type": "ADME, cell-based, Hepatocyte", "conditions": "read-out: CLH"}}}
{"smiles": "Cc1cn2c(-c3cn[nH]c3)cnc2c(Nc2cc(C(NC(C)(C)C)c3ccccn3)ns2)n1", "note": "(single isomer, unassigned; (+))", "values": [{"measurement": "AUC", "setting": "Rattus norvegicus", "result": 41, "unit": "µM·h"}, {"measurement": "hepatocyte CLint", "setting": "[1]", "result": 11.5, "unit": "µL/min/1e6 cells"}]}
